Experimental data published in patent US20230131966A1, “FUNGICIDAL AMIDES” (FMC Corporation, priority 2020, published 2023).

Experiments:
Assay type in all cases: in vivo
Plasmopara viticola = assay: Test D: grape downy mildew control on grape seedlings; settings: 100 = 100% disease control, 0 = no control
Zymoseptoria tritici = assay: Test C: wheat leaf blotch control on wheat seedlings; settings: wheat seedlings, 100 = 100% disease control, 0 = no control
Botrytis cinerea = assay: Test E: tomato Botrytis control on tomato seedlings; settings: 100 = 100% disease control, 0 = no control
Phakopsora pachyrhizi = assay: Test A: Asian soybean rust control on soybean seedlings; settings: soybean seedlings, 100 = 100% disease control, 0 = no control
[1] = tested on: Erysiphe graminis f. sp. tritici; assay: Test G: wheat powdery mildew control on wheat seedlings; settings: 100 = 100% disease control, 0 = no control
[2] = tested on: Puccinia recondita f. sp. tritici; assay: Test B: wheat leaf rust control on wheat seedlings; settings: wheat seedlings, 100 = 100% disease control, 0 = no control
Phytophthora infestans = assay: whole plant or invertebrate; settings: tomato seedlings, 100 = 100% disease control, 0 = no control

Row | SMILES | Test D disease control rating (Plasmopara viticola; 250 ppm) [%] | Test C disease control rating (Zymoseptoria tritici; 250 ppm) [%] | Test E disease control rating (Botrytis cinerea; 250 ppm) [%] | Test A disease control rating (Phakopsora pachyrhizi; 250 ppm) [%] | Test G disease control rating ([1]; 250 ppm) [%] | Test B disease control rating ([2]; 250 ppm) [%] | Test F disease control rating (Phytophthora infestans; 250 ppm) [%] | Test D disease control rating (Plasmopara viticola; 50 ppm) [%] | Test C disease control rating (Zymoseptoria tritici; 50 ppm) [%] | Test E disease control rating (Botrytis cinerea; 50 ppm) [%] | Test A disease control rating (Phakopsora pachyrhizi; 50 ppm) [%] | Test G disease control rating ([1]; 50 ppm) [%] | Test B disease control rating ([2]; 50 ppm) [%] | Test F disease control rating (Phytophthora infestans; 50 ppm) [%]
1 | COc1ccnc(C(=O)NC(C)C(=O)OC(C)c2ccc(C(F)(F)F)cc2)c1O (mixture of isomers) [Compound 36] | 72 | 81 | 0 | 100 | 0 | 99 | 0 | – | – | – | – | – | – | –
2 | COc1ccnc(C(=O)NC(C)C(=O)OC(C)C23CC4CC(CC(C4)C2)C3)c1OC(C)=O (mixture of isomers) [Compound 43] | 71 | 90 | 0 | 100 | 0 | 100 | 0 | – | – | – | – | – | – | –
3 | CCOC(=O)c1cnn(-c2ccc(C(C)OC(=O)C(C)NC(=O)c3nccc(OC)c3OC(C)=O)cc2)c1 (mixture of isomers) [Compound 47] | 20 | 51 | 0 | 99 | 0 | 68 | 0 | – | – | – | – | – | – | –
4 | CCOC(=O)c1ccn(-c2ccc(C(C)OC(=O)C(C)NC(=O)c3nccc(OC)c3OC(C)=O)cc2)n1 (mixture of isomers) [Compound 48] | 4 | 8 | 0 | 55 | 0 | 55 | 0 | – | – | – | – | – | – | –
5 | CCOC(=O)c1ccn(-c2ccc(C(C)OC(=O)C(C)NC(=O)c3nccc(OC)c3O)cc2)n1 (mixture of isomers) [Compound 49] | 17 | 0 | 0 | 97 | 0 | 41 | 0 | – | – | – | – | – | – | –
6 | COc1ccnc(C(=O)NC(C)C(=O)OC(C)c2ccc(OC3CCCCC3)cc2)c1O (mixture of isomers) [Compound 53] | 22 | 22 | 0 | 56 | 0 | 55 | 0 | – | – | – | – | – | – | –
7 | COc1ccnc(C(=O)NC(C)C(=O)OC(C)c2ccccc2Oc2ccc(F)cc2)c1OC(C)=O (mixture of isomers) [Compound 61] | 15 | 0 | 0 | 0 | 0 | 55 | 0 | – | – | – | – | – | – | –
8 | COc1ccnc(C(=O)NC(C)C(=O)OC(C(C)C)C2CCCCC2)c1O (mixture of isomers) [Compound 63] | 81 | 79 | 16 | 100 | 0 | 99 | 0 | – | – | – | – | – | – | –
9 | COc1ccnc(C(=O)NC(C)C(=O)OC(C)c2ccc(C3CCCC3)cc2)c1OC(C)=O (mixture of isomers) [Compound 64] | – | – | – | – | – | – | – | 86 | 13 | 0 | 100 | 0 | 99 | 0
10 | COc1ccnc(C(=O)NC(C)C(=O)OC(C)c2ccc(Br)s2)c1OC(C)=O (mixture of isomers) [Compound 67] | 53 | 36 | 0 | 13 | 0 | 55 | 0 | – | – | – | – | – | – | –
11 | CCCCCCc1ccc(C(C)OC(=O)C(C)NC(=O)c2nccc(OC)c2O)cc1 (mixture of isomers) [Compound 68] | 46 | 97 | 0 | 100 | 0 | 95 | 40 | – | – | – | – | – | – | –
12 | COc1ccnc(C(=O)NC(C)C(=O)OC(C)c2ccc(C#C[Si](C)(C)C)cc2)c1O (mixture of isomers) [Compound 69] | 50 | 94 | 0 | 100 | 0 | 100 | 9 | – | – | – | – | – | – | –
13 | COc1ccnc(C(=O)NC(C(=O)OC(C)c2ccc(C3CCCCC3)cc2)C(C)C)c1O (mixture of isomers) [Compound 70] | 63 | 97 | 0 | 100 | 13 | 100 | 24 | – | – | – | – | – | – | –
14 | CCC(OC(=O)C(C)NC(=O)c1nccc(OC)c1O)c1ccc(C2CCCCC2)cc1 (mixture of isomers) [Compound 72] | 62 | 27 | 0 | 100 | 35 | 92 | 0 | – | – | – | – | – | – | –
15 | COc1ccnc(C(=O)NC(C)C(=O)OC(C)c2ccc3ccccc3c2)c1OC(C)=O (mixture of isomers) [Compound 75] | 61 | 100 | 0 | 100 | 0 | 100 | 0 | – | – | – | – | – | – | –
16 | C#Cc1ccc(C(C)OC(=O)C(C)NC(=O)c2nccc(OC)c2O)cc1 (mixture of isomers) [Compound 78] | 85 | 82 | 0 | 100 | 0 | 100 | 0 | – | – | – | – | – | – | –
17 | COc1ccnc(C(=O)NC(C)C(=O)OC(C)c2ccc(C#C[Si](C)(C)C)cc2)c1OC(C)=O (mixture of isomers) [Compound 80] | 28 | 98 | 0 | 100 | 0 | 100 | 0 | – | – | – | – | – | – | –
18 | COc1ccnc(C(=O)NC(C)C(=O)OC(C)c2ccc(F)cc2Oc2ccccc2)c1O (mixture of isomers) [Compound 81] | 53 | 78 | 0 | 93 | 0 | 68 | 0 | – | – | – | – | – | – | –
19 | COc1ccnc(C(=O)NC(C)C(=O)OC(C)c2ccc(F)cc2Oc2ccc(F)cc2)c1O (mixture of isomers) [Compound 82] | 82 | 79 | 0 | 95 | 0 | 55 | 0 | – | – | – | – | – | – | –
